{"source": "patent US20250026724A1", "about": "“(1,4,5-TRISUBSTITUTED 1H-PYRAZOL-3-YL)OXY-2-ALKYLTHIOALKYL ACIDS AND -ALKYL ACID DERIVATIVES, SALTS THEREOF AND USE THEREOF AS ACTIVE HERBICIDAL INGREDIENTS” (BAYER AKTIENGESELLSCHAFT, priority 2021, published 2025)", "data": [{"test_system": "Zea mays (ZEAMX)", "assay": "Post-emergence crop plant compatibility, greenhouse pot trial", "assay_type": "in vivo", "conditions": "20 g/ha, in comparison to untreated controls", "experimental": "Seeds of monocotyledonous and dicotyledonous weeds and crop plants are placed in sandy loam in plastic or organic planting pots, covered with soil and cultivated in a greenhouse under controlled growth conditions. 2 to 3 weeks after sowing, the trial plants are treated at the one-leaf stage. The compounds of the invention, formulated in the form of wettable powders (WP) or as emulsion concentrates (EC), are then sprayed onto the green parts of the plants as aqueous suspension or emulsion with addition of 0.5% additive at a water application rate equivalent to 600 l/ha. After about 3 weeks of keeping the trial plants in the greenhouse under optimum growth conditions, the effect of the preparations is rated visually in comparison to untreated controls. For example, 100% activity=the plants have died, 0% activity=like control plants.\nThe observed effects on selected crop plants are reported here in comparison to the untreated controls (values in %). The appendices “a”, “b” and “c” give differentiation by dosage used with otherwise the same useful plants tested.\nAs shown by results from Tables B1 to B19, inventive compounds of the general formula (I) in the case of post-emergence treatment have good herbicidal efficacy against harmful plants, for example Abutilon theophrasti (ABUTH), Alopecurus myosuroides (ALOMY), Amaranthus retroflexus (AMARE), Avena fatua (AVEFA), Digitaria sanguinalis (DIGSA), Echinochloa crus-galli (ECHCG), Bassia scoparia (KCHSC), Lolium rigidum (LOLRI), Matricaria inodora (MATIN), Pharbitis purpurea (PHBPU), Polygonum convolvulus (POLCO), Setaria viridis (SETVI), Veronica persica (VERPE) and Viola tricolor (VIOTR) at an application rate of 320 g of active substance or less per hectare, and good crop plant compatibility in the case of organisms such as Oryza sativa (ORYSA), Zea mays (ZEAMX), Brassica napus (BRSNW), Glycine max (GLXMA) and Triticum aestivum (TRZAS) at an application rate of 320 g or less per hectare.", "units": {"Post-emergence effect against ZEAMX (crop plant compatibility)": "%"}, "values": [{"smiles": "COC(=O)CCOC(=O)C(Oc1nn(-c2ncccc2F)c(-c2ccc(F)nc2)c1Br)SC", "note": "(single isomer, unassigned) [Example I-23]", "Post-emergence effect against ZEAMX (crop plant compatibility)": 0}]}, {"test_system": "Setaria viridis (SETVI)", "assay": "Post-emergence herbicidal action, greenhouse pot trial", "assay_type": "in vivo", "conditions": "320 g/ha, visual rating after about 3 weeks", "outline": "(§1)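 Visual % activity versus untreated controls (100% = plants died, 0% = like control), scored about 3 weeks post-spray. Plants grown in sandy loam pots under greenhouse conditions were treated at the one-leaf stage with WP or EC formulations at 320 g/ha or lower.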", "units": {"Post-emergence effect at 320 g/ha against SETVI in %": "%"}, "values": [{"smiles": "COC(=O)CCOC(=O)C(Oc1nn(-c2ncccc2F)c(-c2ccc(F)nc2)c1Br)SC", "note": "(single isomer, unassigned) [Example I-23]", "Post-emergence effect at 320 g/ha against SETVI in %": 90}]}, {"test_system": "Avena fatua (AVEFA)", "assay": "Post-emergence herbicidal action, greenhouse pot trial", "assay_type": "in vivo", "conditions": "320 g/ha, visual rating after about 3 weeks", "outline": "as §1", "units": {"Post-emergence effect at 320 g/ha against AVEFA in %": "%"}, "values": [{"smiles": "COC(=O)CCOC(=O)C(Oc1nn(-c2ncccc2F)c(-c2ccc(F)nc2)c1Br)SC", "note": "(single isomer, unassigned) [Example I-23]", "Post-emergence effect at 320 g/ha against AVEFA in %": 80}]}, {"test_system": "Pharbitis purpurea (PHBPU)", "assay": "Post-emergence herbicidal action, greenhouse pot trial", "assay_type": "in vivo", "conditions": "80 g/ha, visual rating after about 3 weeks", "outline": "as §1", "units": {"Post-emergence effect at 80 g/ha against PHBPU in %": "%"}, "values": [{"smiles": "COC(=O)CCOC(=O)C(Oc1nn(-c2ncccc2F)c(-c2ccc(F)nc2)c1Br)SC", "note": "(single isomer, unassigned) [Example I-23]", "Post-emergence effect at 80 g/ha against PHBPU in %": 80}]}, {"test_system": "Pharbitis purpurea (PHBPU)", "assay": "Post-emergence herbicidal action, greenhouse pot trial", "assay_type": "in vivo", "conditions": "320 g/ha, visual rating after about 3 weeks", "outline": "as §1", "units": {"Post-emergence effect at 320 g/ha against PHBPU in %": "%"}, "values": [{"smiles": "COC(=O)CCOC(=O)C(Oc1nn(-c2ncccc2F)c(-c2ccc(F)nc2)c1Br)SC", "note": "(single isomer, unassigned) [Example I-23]", "Post-emergence effect at 320 g/ha against PHBPU in %": 90}]}, {"test_system": "Abutilon theophrasti (ABUTH)", "assay": "Post-emergence herbicidal action, greenhouse pot trial", "assay_type": "in vivo", "conditions": "80 g/ha, visual rating after about 3 weeks", "outline": "as §1", "units": {"Post-emergence effect at 80 g/ha against ABUTH in %": "%"}, "values": [{"smiles": "COC(=O)CCOC(=O)C(Oc1nn(-c2ncccc2F)c(-c2ccc(F)nc2)c1Br)SC", "note": "(single isomer, unassigned) [Example I-23]", "Post-emergence effect at 80 g/ha against ABUTH in %": 80}]}, {"test_system": "Abutilon theophrasti (ABUTH)", "assay": "Post-emergence herbicidal action, greenhouse pot trial", "assay_type": "in vivo", "conditions": "320 g/ha, visual rating after about 3 weeks", "outline": "as §1", "units": {"Post-emergence effect at 320 g/ha against ABUTH in %": "%"}, "values": [{"smiles": "COC(=O)CCOC(=O)C(Oc1nn(-c2ncccc2F)c(-c2ccc(F)nc2)c1Br)SC", "note": "(single isomer, unassigned) [Example I-23]", "Post-emergence effect at 320 g/ha against ABUTH in %": 90}]}, {"test_system": "Alopecurus myosuroides (ALOMY)", "assay": "Post-emergence herbicidal action, greenhouse pot trial", "assay_type": "in vivo", "conditions": "320 g/ha, visual rating after about 3 weeks", "outline": "as §1", "units": {"Post-emergence effect at 320 g/ha against ALOMY in %": "%"}, "values": [{"smiles": "COC(=O)CCOC(=O)C(Oc1nn(-c2ncccc2F)c(-c2ccc(F)nc2)c1Br)SC", "note": "(single isomer, unassigned) [Example I-23]", "Post-emergence effect at 320 g/ha against ALOMY in %": 80}]}, {"test_system": "Polygonum convolvulus (POLCO)", "assay": "Post-emergence herbicidal action, greenhouse pot trial", "assay_type": "in vivo", "conditions": "80 g/ha, visual rating after about 3 weeks", "outline": "as §1", "units": {"Post-emergence effect at 80 g/ha against POLCO in %": "%"}, "values": [{"smiles": "COC(=O)CCOC(=O)C(Oc1nn(-c2ncccc2F)c(-c2ccc(F)nc2)c1Br)SC", "note": "(single isomer, unassigned) [Example I-23]", "Post-emergence effect at 80 g/ha against POLCO in %": 80}]}, {"test_system": "Polygonum convolvulus (POLCO)", "assay": "Post-emergence herbicidal action, greenhouse pot trial", "assay_type": "in vivo", "conditions": "320 g/ha, visual rating after about 3 weeks", "outline": "as §1", "units": {"Post-emergence effect at 320 g/ha against POLCO in %": "%"}, "values": [{"smiles": "COC(=O)CCOC(=O)C(Oc1nn(-c2ncccc2F)c(-c2ccc(F)nc2)c1Br)SC", "note": "(single isomer, unassigned) [Example I-23]", "Post-emergence effect at 320 g/ha against POLCO in %": 90}]}, {"test_system": "Viola tricolor (VIOTR)", "assay": "Post-emergence herbicidal action, greenhouse pot trial", "assay_type": "in vivo", "conditions": "80 g/ha", "outline": "as §1", "units": {"Post-emergence effect against VIOTR": "%"}, "values": [{"smiles": "COC(=O)CCOC(=O)C(Oc1nn(-c2ncccc2F)c(-c2ccc(F)nc2)c1Br)SC", "note": "(single isomer, unassigned) [Example I-23]", "Post-emergence effect against VIOTR": 80}]}, {"test_system": "Viola tricolor (VIOTR)", "assay": "Post-emergence herbicidal action, greenhouse pot trial", "assay_type": "in vivo", "conditions": "320 g/ha", "outline": "as §1", "units": {"Post-emergence effect against VIOTR": "%"}, "values": [{"smiles": "COC(=O)CCOC(=O)C(Oc1nn(-c2ncccc2F)c(-c2ccc(F)nc2)c1Br)SC", "note": "(single isomer, unassigned) [Example I-23]", "Post-emergence effect against VIOTR": 90}]}, {"test_system": "Matricaria inodora (MATIN)", "assay": "Post-emergence herbicidal action, greenhouse pot trial", "assay_type": "in vivo", "conditions": "80 g/ha, visual rating after about 3 weeks", "outline": "as §1", "units": {"Post-emergence effect at 80 g/ha against MATIN in %": "%"}, "values": [{"smiles": "COC(=O)CCOC(=O)C(Oc1nn(-c2ncccc2F)c(-c2ccc(F)nc2)c1Br)SC", "note": "(single isomer, unassigned) [Example I-23]", "Post-emergence effect at 80 g/ha against MATIN in %": 80}]}, {"test_system": "Matricaria inodora (MATIN)", "assay": "Post-emergence herbicidal action, greenhouse pot trial", "assay_type": "in vivo", "conditions": "320 g/ha, visual rating after about 3 weeks", "outline": "as §1", "units": {"Post-emergence effect at 320 g/ha against MATIN in %": "%"}, "values": [{"smiles": "COC(=O)CCOC(=O)C(Oc1nn(-c2ncccc2F)c(-c2ccc(F)nc2)c1Br)SC", "note": "(single isomer, unassigned) [Example I-23]", "Post-emergence effect at 320 g/ha against MATIN in %": 90}]}, {"test_system": "Lolium rigidum (LOLRI)", "assay": "Post-emergence herbicidal action, greenhouse pot trial", "assay_type": "in vivo", "conditions": "320 g/ha, visual rating after about 3 weeks", "outline": "as §1", "units": {"Post-emergence effect at 320 g/ha against LOLRI in %": "%"}, "values": [{"smiles": "COC(=O)CCOC(=O)C(Oc1nn(-c2ncccc2F)c(-c2ccc(F)nc2)c1Br)SC", "note": "(single isomer, unassigned) [Example I-23]", "Post-emergence effect at 320 g/ha against LOLRI in %": 90}]}, {"test_system": "Echinochloa crus-galli (ECHCG)", "assay": "Post-emergence herbicidal action, greenhouse pot trial", "assay_type": "in vivo", "conditions": "80 g/ha, visual rating after about 3 weeks", "outline": "as §1", "units": {"Post-emergence effect at 80 g/ha against ECHCG in %": "%"}, "values": [{"smiles": "COC(=O)CCOC(=O)C(Oc1nn(-c2ncccc2F)c(-c2ccc(F)nc2)c1Br)SC", "note": "(single isomer, unassigned) [Example I-23]", "Post-emergence effect at 80 g/ha against ECHCG in %": 90}]}, {"test_system": "Echinochloa crus-galli (ECHCG)", "assay": "Post-emergence herbicidal action, greenhouse pot trial", "assay_type": "in vivo", "conditions": "320 g/ha, visual rating after about 3 weeks", "outline": "as §1", "units": {"Post-emergence effect at 320 g/ha against ECHCG in %": "%"}, "values": [{"smiles": "COC(=O)CCOC(=O)C(Oc1nn(-c2ncccc2F)c(-c2ccc(F)nc2)c1Br)SC", "note": "(single isomer, unassigned) [Example I-23]", "Post-emergence effect at 320 g/ha against ECHCG in %": 90}]}, {"test_system": "Amaranthus retroflexus (AMARE)", "assay": "Post-emergence herbicidal action, greenhouse pot trial", "assay_type": "in vivo", "conditions": "320 g/ha, visual rating after about 3 weeks", "outline": "as §1", "units": {"Post-emergence effect at 320 g/ha against AMARE in %": "%"}, "values": [{"smiles": "COC(=O)CCOC(=O)C(Oc1nn(-c2ncccc2F)c(-c2ccc(F)nc2)c1Br)SC", "note": "(single isomer, unassigned) [Example I-23]", "Post-emergence effect at 320 g/ha against AMARE in %": 80}]}, {"test_system": "Digitaria sanguinalis (DIGSA)", "assay": "Post-emergence herbicidal action, greenhouse pot trial", "assay_type": "in vivo", "conditions": "80 g/ha, visual rating after about 3 weeks", "outline": "as §1", "units": {"Post-emergence effect at 80 g/ha against DIGSA in %": "%"}, "values": [{"smiles": "COC(=O)CCOC(=O)C(Oc1nn(-c2ncccc2F)c(-c2ccc(F)nc2)c1Br)SC", "note": "(single isomer, unassigned) [Example I-23]", "Post-emergence effect at 80 g/ha against DIGSA in %": 90}]}, {"test_system": "Digitaria sanguinalis (DIGSA)", "assay": "Post-emergence herbicidal action, greenhouse pot trial", "assay_type": "in vivo", "conditions": "320 g/ha, visual rating after about 3 weeks", "outline": "as §1", "units": {"Post-emergence effect at 320 g/ha against DIGSA in %": "%"}, "values": [{"smiles": "COC(=O)CCOC(=O)C(Oc1nn(-c2ncccc2F)c(-c2ccc(F)nc2)c1Br)SC", "note": "(single isomer, unassigned) [Example I-23]", "Post-emergence effect at 320 g/ha against DIGSA in %": 90}]}]}
